# “Also recorded” adds a separate entry of the source.
# Columns and labels:
# breast cancer [1] = test: Retrospective cohort analysis of claims data: 1-year incidence of breast cancer (Objective A); type: in vivo, women
# From the text: (§1) We set out to assess the 1-year incidence rate of breast cancer among women treated with prasterone compared to matched controls of untreated VVA women (Objective A). We also assessed the 1-year recurrence rate of breast cancer among women treated with prasterone with a history of breast cancer compared to matched controls of untreated VVA women (Objective B).
# (§2) In order to evaluate whether total exposure to prasterone in the follow-up window alters the results of the primary objectives A and B, we used sensitivity analyses to stratify patients based on cumulative days of supply.
# (§3) This retrospective cohort analysis was based on claims data from the Integrated Dataverse (IDV) database from Symphony Health Solutions. Data included in the analysis spanned a 5-year period from February 2015 through January 2020. For both objectives, the index date was defined as the first prasterone prescription fill date for treated women and as the initial VVA diagnosis date for untreated women (FIG. 1). Data were included from women who were at least 45 years of age and had at least one year of data available before and after the index date. Women treated with vaginal estrogen or ospem ifene were excluded. History of breast cancer prior to the index date was assessed. Before matching, 47,395 patients with at least one prescription of intravaginal prasterone (6.5 mg suppository) filled and no history of breast cancer were included and 2,986 with a history of breast cancer. Before matching again, 669,623 women were included in the pool of untreated VVA patients without a history of breast cancer, and 53,896 with a history of breast cancer (FIG. 2).
# (§4) To ensure a balanced risk profile across treatment groups the women treated with prasterone were matched with a 1:1 ratio to untreated women based on the following parameters (FIG. 3): • Calendar year • Age • Prior to the index date: • Cancer diagnosis • Breast cancer diagnosis • Use of chemotherapy • Family history of breast cancer • Mammography • Use of estrogen therapy • Obesity and hyperlipidemia • Assessed during the 12 months prior to the index date • Charlson Elixhauser comorbidity index
# (§5) Primary objectives A and B included all women meeting the inclusion criteria and having at least one prescription of prasterone filled. We then set minimum exposure thresholds to stratify patients based on the length of exposure. Thresholds were set at least 90 or 180 days of supply. Incidence (objective A) and recurrence (objective B) analyses were conducted in these new groups.
# breast cancer [2] = test: Retrospective cohort analysis of claims data: 1-year recurrence of breast cancer in women with a history of breast cancer (Objective B); type: in vivo
# From the text: as §1, §2, §3, §4, §5
# [3] = system: breast intraepithelial neoplasia; conditions: 5 mg/d for 3 years; 55% of women menopaused; cited from earlier work
# breast cancer [4] = conditions: postmenopausal women; testosterone supplements; cited from earlier work
# [5] = all ages (≥45 years old), any days of supply
# [6] = minimum exposure threshold either 90 days or 180 days of supply
structure (smiles),measurement,setting,value
"C[C@]12CC[C@H](O)CC1=CC[C@@H]1[C@@H]2CC[C@]2(C)C(=O)CC[C@@H]12 [Intravaginal prasterone, dehydroepiandrosterone]",% of incidence of breast cancer,breast cancer [1]; 45 to 54 years old,0.34%
same,incidence ratio (prasterone / untreated VVA),breast cancer [1]; 45 to 54 years old,0.85
same,% of incidence of breast cancer,breast cancer [1]; 55 to 64 years old,0.37%
same,incidence ratio (prasterone / untreated VVA),breast cancer [1]; 55 to 64 years old,0.87
same,% of incidence of breast cancer,breast cancer [1]; 65 years old and older,0.58%
same,incidence ratio (prasterone / untreated VVA),breast cancer [1]; 65 years old and older,1.03
same,incidence ratio (prasterone / untreated VVA),breast cancer [1]; [5],0.89
same,% of incidence of breast cancer,"breast cancer [1]; all ages (≥45 years old), any days of supply, 1-year, 6.5 mg suppository",0.39%
same,% of incidence of breast cancer,breast cancer [1]; at least 90 days of supply,0.28%
same,incidence ratio (prasterone / untreated VVA),breast cancer [1]; at least 90 days of supply,0.55
same,% of incidence of breast cancer,breast cancer [1]; at least 180 days of supply,0.25%
same,incidence ratio (prasterone / untreated VVA),breast cancer [1]; at least 180 days of supply,0.48
same,incidence of breast cancer compared to the untreated VVA group (in words),"breast cancer [1]; at least one prescription filled, all ages and age groups 45-54, 55-64, 65+",no statistically significant difference; also recorded: no statistical difference
same,incidence of breast cancer compared to the untreated VVA groups (in words),breast cancer [1]; [6],significant reduction
same,% of recurrence of breast cancer,breast cancer [2]; 45 to 54 years old,41.63%
same,recurrence ratio (prasterone / untreated VVA),breast cancer [2]; 45 to 54 years old,0.84
same,% of recurrence of breast cancer,breast cancer [2]; 55 to 64 years old,31.42%
same,recurrence ratio (prasterone / untreated VVA),breast cancer [2]; 55 to 64 years old,0.82
same,% of recurrence of breast cancer,breast cancer [2]; 65 years old and older,32.77%
same,recurrence ratio (prasterone / untreated VVA),breast cancer [2]; 65 years old and older,0.91
same,recurrence ratio (prasterone / untreated VVA),breast cancer [2]; [5],0.85
same,% of recurrence of breast cancer,"breast cancer [2]; all ages (≥45 years old), any days of supply, history of breast cancer",34.21%
same,Recurrence analysis: % of incidence,breast cancer [2]; at least 90 days of supply,30.48%
same,recurrence ratio (prasterone / untreated VVA),breast cancer [2]; at least 90 days of supply,0.83
same,Recurrence analysis: % of incidence,breast cancer [2]; at least 180 days of supply,30.29%
same,recurrence ratio (prasterone / untreated VVA),breast cancer [2]; at least 180 days of supply,0.78
same,recurrence of breast cancer compared to the untreated VVA group (in words),"breast cancer [2]; at least one prescription filled, all ages and three age groups",significantly lower; also recorded: significant reduction of recurrence
same,recurrence of breast cancer compared to the untreated VVA groups (in words),breast cancer [2]; [6],significant reduction
CC/C(=C(\c1ccccc1)c1ccc(OCCN(C)C)cc1)c1ccccc1 [Tamoxifen],recurrence of breast intraepithelial neoplasia (in words),[3],halve the recurrence of breast intraepithelial neoplasia
C[C@]12CC[C@H]3[C@@H](CCC4=CC(=O)CC[C@@]43C)[C@@H]1CC[C@@H]2O [testosterone],breast cancer incidence (in words),breast cancer [4],reduction of the breast cancer incidence

# Source: patent US11690852B2, “Reduction of the incidence or recurrence of breast cancer in postmenopausal women treated with intravaginal sex steroid precursor” (Endorecherche, Inc., priority 2020, dated 2023)
